Experimental data taken from ChEMBL document CHEMBL1201862, “PubChem BioAssay data set” (2004).
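Assay format: 96-well plates, 48-hour exposure. Here, GI50 denotes the concentration required for 50% inhibition of growth.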 Activity calls are given as the source filed them. Cut-off read from the data, not from the text of the source: active = GI50 up to about 1.1 µM and inactive = higher.

Tests used:
Assay in all cases: NCI-60 cell line screen, 48 h
HT-29 = system: HT-29
SW-620 = system: SW-620
SNB-75 = system: SNB-75
MOLT-4 = system: MOLT-4
RPMI-8226 = system: RPMI-8226
OVCAR-5 = system: OVCAR-5
SK-MEL-28 = system: SK-MEL-28
SK-MEL-5 = system: SK-MEL-5
OVCAR-4 = system: OVCAR-4
M14 = system: M14
A498 = system: A498
NCI-H226 = system: NCI-H226
SF-295 = system: SF-295
UACC-62 = system: UACC-62
HOP-92 = system: HOP-92
SN12C = system: SN12C
SF-539 = system: SF-539
COLO 205 = system: COLO 205
OVCAR-3 = system: OVCAR-3
A549 = system: A549

SMILES | GI50 (HT-29) | GI50 (SW-620) | GI50 (SNB-75) | GI50 (MOLT-4) | GI50 (RPMI-8226) | GI50 (OVCAR-5) | GI50 (SK-MEL-28) | GI50 (SK-MEL-5) | GI50 (OVCAR-4) | GI50 (M14) | GI50 (A498) | GI50 (NCI-H226) | GI50 (SF-295) | GI50 (UACC-62) | GI50 (HOP-92) | GI50 (SN12C) | GI50 (SF-539) | GI50 (COLO 205) | GI50 (OVCAR-3) | GI50 (A549)
COc1c2c(c(O)c3c4c(c(C)cc13)C1OC3(C(OC)OC5CC(C)(O)C(OC6CC(C)(O)C(O)C(C)O6)C(C)O5)OC1C(OC)(O4)C31CO1)C(=O)C(O)CC2OC1CC(C)(O)C(OC(C)=O)C(C)O1 (stereo not given) | < 0.01 µM (active) | < 0.01 µM (active) | < 0.01 µM (active) | < 0.01 µM (active) | < 0.01 µM (active) | < 0.01 µM (active) | < 0.01 µM (active) | < 0.01 µM (active) | < 0.01 µM (active) | < 0.01 µM (active) | < 0.01 µM (active) | < 0.01 µM (active) | < 0.01 µM (active) | < 0.01 µM (active) | < 0.01 µM (active) | < 0.01 µM (active) | < 0.01 µM (active) | < 0.01 µM (active) | < 0.01 µM (active) | < 0.01 µM (active)
CSC(=N)NNC(=O)CCC(=O)Nc1ccccc1C(F)(F)F | > 100 µM (inactive) | > 82.2 µM (inactive) | > 52.2 µM (inactive) | > 100 µM (inactive) | > 100 µM (inactive) | > 100 µM (inactive) | > 100 µM (inactive) | > 100 µM (inactive) | > 100 µM (inactive) | > 100 µM (inactive) | > 100 µM (inactive) | > 100 µM (inactive) | > 100 µM (inactive) | > 100 µM (inactive) | > 100 µM (inactive) | > 100 µM (inactive) | > 79.8 µM (inactive) | > 100 µM (inactive) | > 100 µM (inactive) | > 100 µM (inactive)
CC(=O)OCCCCn1cnc2nc(Nc3ccccc3)nc(Cl)c21 | 91.6 µM (inactive) | > 100 µM (inactive) | 50.7 µM (inactive) | 66.5 µM (inactive) | > 100 µM (inactive) | – | > 100 µM (inactive) | 42.2 µM (inactive) | 65.3 µM (inactive) | 59.6 µM (inactive) | 73.1 µM (inactive) | 57 µM (inactive) | 57.1 µM (inactive) | 33.7 µM (inactive) | 51.4 µM (inactive) | 90.6 µM (inactive) | > 100 µM (inactive) | > 100 µM (inactive) | 55.1 µM (inactive) | 61.7 µM (inactive)
CCN(CC)CC(=N)N(CC)c1ccccc1 | – | > 100 µM (inactive) | 33.7 µM (inactive) | > 100 µM (inactive) | > 100 µM (inactive) | > 100 µM (inactive) | > 100 µM (inactive) | > 100 µM (inactive) | > 100 µM (inactive) | > 100 µM (inactive) | > 100 µM (inactive) | > 100 µM (inactive) | > 100 µM (inactive) | > 100 µM (inactive) | > 100 µM (inactive) | > 100 µM (inactive) | > 100 µM (inactive) | > 100 µM (inactive) | > 100 µM (inactive) | > 100 µM (inactive)
CCN(CC)Cc1ccc2cccnc2c1O | 2.9 µM (inactive) | 3.3 µM (inactive) | 0.577 µM (active) | 1.93 µM (inactive) | 3.1 µM (inactive) | 10.3 µM (inactive) | 7.35 µM (inactive) | 3.54 µM (inactive) | 16.4 µM (inactive) | – | 16.3 µM (inactive) | 6.08 µM (inactive) | 3.48 µM (inactive) | 5.92 µM (inactive) | 11.6 µM (inactive) | 4.12 µM (inactive) | 6.58 µM (inactive) | 15.7 µM (inactive) | 2.88 µM (inactive) | 6.34 µM (inactive)
O=C1NC(c2cccc3ccccc23)Nc2ccc(O)cc21 (stereo not given) | 40.5 µM (inactive) | 17.6 µM (inactive) | 38.6 µM (inactive) | 9.48 µM (inactive) | 24.2 µM (inactive) | 32.6 µM (inactive) | 47.1 µM (inactive) | 23.8 µM (inactive) | 1.1 µM (active) | – | 23.9 µM (inactive) | 19.5 µM (inactive) | 27.5 µM (inactive) | 21 µM (inactive) | 35 µM (inactive) | 39.9 µM (inactive) | 33 µM (inactive) | 34.1 µM (inactive) | 24.5 µM (inactive) | 33.4 µM (inactive)
CCCCC(NC(=O)CC)C(=O)O (stereo not given) | > 100 µM (inactive) | > 100 µM (inactive) | > 100 µM (inactive) | > 100 µM (inactive) | > 100 µM (inactive) | > 100 µM (inactive) | > 100 µM (inactive) | > 100 µM (inactive) | > 100 µM (inactive) | – | > 100 µM (inactive) | > 100 µM (inactive) | > 100 µM (inactive) | > 100 µM (inactive) | > 100 µM (inactive) | > 100 µM (inactive) | > 100 µM (inactive) | > 100 µM (inactive) | > 100 µM (inactive) | > 100 µM (inactive)
